The compounds below were run against human APJ receptor (Homo sapiens (Human), UniProt P35414) (assay: Intracellular cAMP accumulation assay (APJ hcAMP, HTRF)). Conditions: HEK293 cells stably expressing human APJ receptor; inhibition of forskolin-mediated cAMP production; read-out: Human APJ cAMP EC50 Potency range.
Type: cell-based
In short: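 HEK293 cells stably expressing human APJ, 5,000 per well, incubated 30 min at rt with compound, […] and 2 μM forskolin. cAMP measured by HTRF against a cAMP standard curve as inhibition of forskolin-driven production. EC50 from variable-slope sigmoidal fit.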

Sequence of human APJ receptor (P35414 whole entry): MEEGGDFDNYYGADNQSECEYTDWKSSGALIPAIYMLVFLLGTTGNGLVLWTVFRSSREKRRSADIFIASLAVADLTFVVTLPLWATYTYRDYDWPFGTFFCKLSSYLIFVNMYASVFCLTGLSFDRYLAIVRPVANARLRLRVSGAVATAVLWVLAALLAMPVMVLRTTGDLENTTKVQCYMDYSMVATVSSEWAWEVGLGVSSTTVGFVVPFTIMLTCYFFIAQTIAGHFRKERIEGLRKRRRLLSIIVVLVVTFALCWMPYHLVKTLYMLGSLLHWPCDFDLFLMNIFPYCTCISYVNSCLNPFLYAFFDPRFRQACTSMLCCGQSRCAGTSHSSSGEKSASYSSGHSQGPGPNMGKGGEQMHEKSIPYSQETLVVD

| Structure (SMILES) | EC50 [nM] |
| --- | --- |
| COC[C@@H](c1ccccc1)n1c(COC(C)C)nc(=O)c(S(=O)(=O)c2ccc(-c3ccccc3C(N)=O)c(F)c2)c1O [Example 402, 2′-fluoro-4′-({6-hydroxy-1-[(1R)-2-methoxy-1-phenylethyl]-4-oxo-2-[(propan-2-yloxy)methyl]-1,4-dihydropyrimidin-5-yl}sulfonyl)-[1,1′-biphenyl]-2-carboxamide] | 0.01 to 10 |
| COC[C@@H](c1cccc(C#N)c1)n1c(COC(C)C)nc(=O)c(S(=O)(=O)c2ccc(-c3ccncc3C#N)cc2)c1O [Example 404, 4-[4-({1-[(1R)-1-(3-cyanophenyl)-2-methoxyethyl]-6-hydroxy-4-oxo-2-[(propan-2-yloxy)methyl]-1,4-dihydropyrimidin-5-yl}sulfonyl)phenyl] pyridine-3-carbonitrile] | 0.01 to 10 |
| COC[C@@H](c1ccccc1)n1c(COC(C)C)nc(=O)c(S(=O)(=O)c2ccc(-c3ccncc3C#N)c(F)c2)c1O [Example 405, 4-[2-fluoro-4-({6-hydroxy-1-[(1R)-2-methoxy-1-phenylethyl]-4-oxo-2-[(propan-2-yloxy)methyl]-1,4-dihydropyrimidin-5-yl}sulfonyl)phenyl]pyridine-3-carbonitrile] | 0.01 to 10 |
| COC[C@@H](c1ccccc1)n1c(COC(C)C)nc(=O)c(S(=O)(=O)c2ccc(-c3ccncc3C#N)cc2)c1O [Example 406, 4-[4-({6-hydroxy-1-[(1R)-2-methoxy-1-phenylethyl]-4-oxo-2-[(propan-2-yloxy)methyl]-1,4-dihydropyrimidin-5-yl}sulfonyl)phenyl]pyridine-3-carbonitrile] | 0.01 to 10 |
| COC[C@@H](c1cc(F)cc(F)c1)n1c(COC(C)C)nc(=O)c(S(=O)(=O)c2ccc(-c3cccn(C)c3=O)cc2)c1O [Example 408, 1-[(1R)-1-(3,5-difluorophenyl)-2-methoxyethyl]-6-hydroxy-5-[4-(1-methyl-2-oxo-1,2-dihydropyridin-3-yl)benzenesulfonyl]-2-[(propan-2-yloxy)methyl]-1,4-dihydropyrimidin-4-one] | 0.01 to 10 |
| COC[C@@H](c1ccccc1)n1c(COC(C)C)nc(=O)c(S(=O)(=O)c2ccc(-c3cnccc3C#N)c(F)c2)c1O [Example 409, 3-[2-fluoro-4-({6-hydroxy-1-[(1R)-2-methoxy-1-phenylethyl]-4-oxo-2-[(propan-2-yloxy)methyl]-1,4-dihydropyrimidin-5-yl}sulfonyl)phenyl]pyridine-4-carbonitrile] | 0.01 to 10 |
| COC[C@@H](c1cccc(C#N)c1)n1c(COC(C)C)nc(=O)c(S(=O)(=O)c2ccc(-c3cnccc3C#N)cc2)c1O [Example 411, 3-[4-({1-[(1R)-1-(3-cyanophenyl)-2-methoxyethyl]-6-hydroxy-4-oxo-2-[(propan-2-yloxy)methyl]-1,4-dihydropyrimidin-5-yl}sulfonyl)phenyl]pyridine-4-carbonitrile] | 0.01 to 10 |
| CCCCc1nc(=O)c(S(=O)(=O)c2ccc(-c3ccnc(F)c3C)cc2)c(O)n1[C@@H](COC)c1cccc(C(N)=O)c1 [Example 412, 3-[(1R)-1-{2-butyl-5-[4-(2-fluoro-3-methylpyridin-4-yl)benzenesulfonyl]-6-hydroxy-4-oxo-1,4-dihydropyrimidin-1-yl}-2-methoxyethyl]benzamide] | 0.01 to 10 |
| CC(C)OCc1nc(=O)c(S(=O)(=O)c2ccc(-c3cnccc3C#N)cc2)c(O)n1[C@H](c1cccc(C#N)c1)C1CC1 [Example 414, 3-[4-({1-[(S)-(3-cyanophenyl)(cyclopropyl)methyl]-6-hydroxy-4-oxo-2-[(propan-2-yloxy)methyl]-1,4-dihydropyrimidin-5-yl}sulfonyl)phenyl] pyridine-4-carbonitrile] | 0.01 to 10 |
| CC(C)OCc1nc(=O)c(S(=O)(=O)c2ccc(-c3ccc(F)cc3C(N)=O)cc2)c(O)n1[C@H](c1cccc(C#N)c1)C1CC1 [Example 417, 4′-({1-[(S)-(3-cyanophenyl)(cyclopropyl)methyl]-6-hydroxy-4-oxo-2-[(propan-2-yloxy)methyl]-1,4-dihydropyrimidin-5-yl}sulfonyl)-4-fluoro-[1,1′-biphenyl]-2-carboxamide] | 0.01 to 10 |
| CC(C)OCc1nc(=O)c(S(=O)(=O)c2ccc(-c3ccccc3C(N)=O)cc2)c(O)n1[C@H](c1cccc(C#N)c1)C1CC1 [Example 418, 4′-({1-[(S)-(3-cyanophenyl)(cyclopropyl)methyl]-6-hydroxy-4-oxo-2-[(propan-2-yloxy)methyl]-1,4-dihydropyrimidin-5-yl}sulfonyl)-[1,1′-biphenyl]-2-carboxamide] | 0.01 to 10 |
| Cc1c(-c2ccc(S(=O)(=O)c3c(O)n([C@H](c4cccc(C#N)c4)C4CC4)c(COC(C)C)nc3=O)cc2)ccnc1F [Example 419, 3-[(S)-cyclopropyl({5-[4-(2-fluoro-3-methylpyridin-4-yl)benzenesulfonyl]-6-hydroxy-4-oxo-2-[(propan-2-yloxy)methyl]-1,4-dihydropyrimidin-1-yl})methyl]benzonitrile] | 0.01 to 10 |
| CCOCc1nc(=O)c(S(=O)(=O)c2ccc(-c3ccccc3C(=O)NC)cc2)c(O)n1[C@H]1CCc2ccccc21 [Example 421, 4′-({1-[(1S)-2,3-dihydro-1H-inden-1-yl]-2-(ethoxymethyl)-6-hydroxy-4-oxo-1,4-dihydropyrimidin-5-yl}sulfonyl)-N-methy1-[1,1′-biphenyl]-2-carboxamide] | 0.01 to 10 |
| CC[C@@H](c1ccccc1)n1c(COC(C)C)nc(=O)c(S(=O)(=O)c2ccc(-c3ccccc3C(=O)NC)cc2)c1O [Example 422, 4′-({6-hydroxy-4-oxo-1-[(1S)-1-phenylpropyl]-2-[(propan-2-yloxy)methyl]-1,4-dihydropyrimidin-5-yl}sulfonyl)-N-methy1-[1,1′-biphenyl]-2-carboxamide] | 0.01 to 10 |
| CCCCc1nc(=O)c(S(=O)(=O)c2ccc(-c3ccnc(F)c3C)cc2)c(O)n1[C@@H](CC)c1ccc(F)cc1 [Example 424, 2-butyl-5-[4-(2-fluoro-3-methylpyridin-4-yl)benzenesulfonyl]-1-[(1S)-1-(4-fluorophenyl)propyl]-6-hydroxy-1,4-dihydropyrimidin-4-one] | 0.01 to 10 |
| CCCCc1nc(=O)c(S(=O)(=O)c2ccc(-c3cccnc3C)cc2)c(O)n1[C@@H](CC)c1ccc(F)cc1 [Example 425, 2-butyl-1-[(1S)-1-(4-fluorophenyl)propyl]-6-hydroxy-5-[4-(2-methylpyridin-3-yl)benzenesulfonyl]-1,4-dihydropyrimidin-4-one] | 0.01 to 10 |

Continued, values first:

| EC50 [nM] | Structure (SMILES) |
| --- | --- |
| 0.01 to 10 | CC[C@@H](c1cccc(C#N)c1)n1c(COC(C)C)nc(=O)c(S(=O)(=O)c2ccc(-c3ccncc3C#N)cc2)c1O [Example 403, 4-[4-({1-[(1S)-1-(3-cyanophenyl)propyl]-6-hydroxy-4-oxo-2-[(propan-2-yloxy)methyl]-1,4-dihydropyrimidin-5-yl}sulfonyl)phenyl]pyridine-3-carbonitrile] |
| 0.01 to 10 | COC[C@@H](c1cc(F)cc(F)c1)n1c(COC(C)C)nc(=O)c(S(=O)(=O)c2ccc(-c3cnccc3C#N)cc2)c1O [Example 407, 3-[4-({1-[(1R)-1-(3,5-difluorophenyl)-2-methoxyethyl]-6-hydroxy-4-oxo-2-[(propan-2-yloxy)methyl]-1,4-dihydropyrimidin-5-yl}sulfonyl)phenyl] pyridine-4-carbonitrile] |
| 0.01 to 10 | CC[C@@H](c1cccc(C#N)c1)n1c(COC(C)C)nc(=O)c(S(=O)(=O)c2ccc(-c3cnccc3C#N)cc2)c1O [Example 410, 3-[4-({1-[(1S)-1-(3-cyanophenyl)propyl]-6-hydroxy-4-oxo-2-[(propan-2-yloxy)methyl]-1,4-dihydropyrimidin-5-yl}sulfonyl)phenyl]pyridine-4-carbonitrile] |
| 0.01 to 10 | COC[C@@H](c1ccccc1)n1c(COC(C)C)nc(=O)c(S(=O)(=O)c2ccc(-c3cnccc3C#N)cc2)c1O [Example 413, 3-[4-({6-hydroxy-1-[(1R)-2-methoxy-1-phenylethyl]-4-oxo-2-[(propan-2-yloxy)methyl]-1,4-dihydropyrimidin-5-yl}sulfonyl)phenyl] pyridine-4-carbonitrile] |
| 0.01 to 10 | Cc1cnccc1-c1ccc(S(=O)(=O)c2c(O)n([C@H](c3cccc(C#N)c3)C3CC3)c(COC(C)C)nc2=O)cc1 [Example 415, 3-[(S)-cyclopropyl({6-hydroxy-5-[4-(3-methylpyridin-4-yl)benzenesulfonyl]-4-oxo-2-[(propan-2-yloxy)methyl]-1,4-dihydropyrimidin-1-yl})methyl]benzonitrile] |
| 0.01 to 10 | CC(C)OCc1nc(=O)c(S(=O)(=O)c2ccc(-c3ccncc3C#N)cc2)c(O)n1[C@H](c1cccc(C#N)c1)C1CC1 [Example 416, 4-[4-({1-[(S)-(3-cyanophenyl)(cyclopropyl)methyl]-6-hydroxy-4-oxo-2-[(propan-2-yloxy)methyl]-1,4-dihydropyrimidin-5-yl}sulfonyl)phenyl]pyridine-3-carbonitrile] |
| 0.01 to 10 | CNC(=O)c1ccccc1-c1ccc(S(=O)(=O)c2c(O)n([C@H](c3cccc(C#N)c3)C3CC3)c(COC(C)C)nc2=O)cc1 [Example 420, 4′-({1-[(S)-(3-cyanophenyl)(cyclopropyl)methyl]-6-hydroxy-4-oxo-2-[(propan-2-yloxy)methyl]-1,4-dihydropyrinudin-5-yl}sulfonyl)-N-methyl-[1,1′-biphenyl]-2-carboxamide] |
| 0.01 to 10 | CCCCc1nc(=O)c(S(=O)(=O)c2ccc(-c3ccncc3C)cc2)c(O)n1[C@@H](CC)c1ccc(F)cc1 [Example 423, 2-butyl-1-[(1S)-1-(4-fluorophenyl)propyl]-6-hydroxy-5-[4-(3-methylpyridin-4-yl)benzenesulfonyl]-1,4-dihydropyrimidin-4-one] |
| 0.01 to 10 | CCCCc1nc(=O)c(S(=O)(=O)c2ccc(-c3ccc(F)nc3C)cc2)c(O)n1[C@@H](CC)c1ccc(F)cc1 [Example 426, 2-butyl-5-[4-(6-fluoro-2-methylpyridin-3-yl)benzenesulfonyl]-1-[(1S)-1-(4-fluorophenyl)propyl]-6-hydroxy-1,4-dihydropyrimidin-4-one] |
